Results as given in ChEMBL document CHEMBL1201862, “PubChem BioAssay data set” (2004).
One block for each molecule: values may come before it. Calls of active or inactive are those of the source.

Key:
[1] = target: Photoreceptor-specific nuclear receptor (Homo sapiens, UniProt Q9Y5X4); type: functional;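 also: potency for compounds that break the NR2E3 corepressor complex and count as activators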
[2] = target: Peroxisome proliferator-activated receptor gamma/Nuclear receptor corepressor 2 (Homo sapiens, UniProt P37231+Q9Y618); type: functional
Streptococcus = experiment: Luminescence Microorganism-Based Dose Response Follow up to Identify Compounds Cytotoxic to Streptococcus. [Related pubchem assays: 1677 (Project Summary), 1915, 1914, 1902 (Retest at Dose), 1900 (Counter Screen), 1662 (Primary HTS)]; type: functional, organism-based
Cytochrome P450 2D6 [3] = target: T1, Cytochrome P450 2D6 (Homo sapiens, UniProt P10635); experiment: qHTS Assay for Inhibitors and Substrates of Cytochrome P450 2D6. [Related pubchem assays: 410 ]; type: ADME; details: read-out: Potency
[4] = target: T2, Alkaline phosphatase, tissue-nonspecific isozyme (Homo sapiens, UniProt P05186)
T2 sequence (P05186 whole entry): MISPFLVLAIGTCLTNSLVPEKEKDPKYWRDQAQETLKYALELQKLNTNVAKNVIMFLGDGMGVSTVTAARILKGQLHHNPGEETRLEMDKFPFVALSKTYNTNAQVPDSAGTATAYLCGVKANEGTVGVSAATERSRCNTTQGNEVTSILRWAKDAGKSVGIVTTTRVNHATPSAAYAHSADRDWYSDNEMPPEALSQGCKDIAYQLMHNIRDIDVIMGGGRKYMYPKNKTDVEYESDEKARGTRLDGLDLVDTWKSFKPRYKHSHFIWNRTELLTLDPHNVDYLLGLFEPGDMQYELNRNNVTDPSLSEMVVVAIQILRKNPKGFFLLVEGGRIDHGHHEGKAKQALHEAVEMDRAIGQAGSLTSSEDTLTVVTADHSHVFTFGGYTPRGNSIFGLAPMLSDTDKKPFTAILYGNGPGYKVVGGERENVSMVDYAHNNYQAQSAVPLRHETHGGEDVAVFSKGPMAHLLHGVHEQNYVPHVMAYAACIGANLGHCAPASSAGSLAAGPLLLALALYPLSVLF

Cytochrome P450 2C9 = Cytochrome P450 2C9 (Homo sapiens, UniProt P11712)
Cytochrome P450 2D6 [5] = target: T1, Cytochrome P450 2D6

T1 sequence (P10635 whole entry): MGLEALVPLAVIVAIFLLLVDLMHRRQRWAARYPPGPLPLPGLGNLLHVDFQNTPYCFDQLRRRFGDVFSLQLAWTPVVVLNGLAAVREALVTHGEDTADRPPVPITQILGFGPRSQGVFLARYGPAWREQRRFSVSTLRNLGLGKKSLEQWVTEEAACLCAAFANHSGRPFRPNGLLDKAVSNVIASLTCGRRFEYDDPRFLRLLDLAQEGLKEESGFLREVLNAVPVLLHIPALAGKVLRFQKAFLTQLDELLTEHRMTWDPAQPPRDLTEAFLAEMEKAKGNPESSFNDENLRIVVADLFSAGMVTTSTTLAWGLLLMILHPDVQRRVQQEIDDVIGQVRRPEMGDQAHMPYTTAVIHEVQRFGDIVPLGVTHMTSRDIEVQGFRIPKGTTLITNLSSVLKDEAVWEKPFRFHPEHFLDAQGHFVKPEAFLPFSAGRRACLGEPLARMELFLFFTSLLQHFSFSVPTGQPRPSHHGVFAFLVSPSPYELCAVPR
Chain of Photoreceptor-specific nuclear receptor (Q9Y5X4 whole entry): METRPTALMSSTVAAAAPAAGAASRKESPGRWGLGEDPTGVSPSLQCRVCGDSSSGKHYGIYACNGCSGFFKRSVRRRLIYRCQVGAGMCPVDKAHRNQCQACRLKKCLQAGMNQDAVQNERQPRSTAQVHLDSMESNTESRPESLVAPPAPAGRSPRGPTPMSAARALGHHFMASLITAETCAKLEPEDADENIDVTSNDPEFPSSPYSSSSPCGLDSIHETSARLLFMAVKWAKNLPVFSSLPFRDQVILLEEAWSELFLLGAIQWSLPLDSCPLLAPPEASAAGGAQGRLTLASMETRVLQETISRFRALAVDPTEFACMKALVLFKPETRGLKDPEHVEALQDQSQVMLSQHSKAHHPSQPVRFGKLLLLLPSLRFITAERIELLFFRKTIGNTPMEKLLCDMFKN
Chain of Peroxisome proliferator-activated receptor gamma/Nuclear receptor corepressor 2 (P37231 whole entry): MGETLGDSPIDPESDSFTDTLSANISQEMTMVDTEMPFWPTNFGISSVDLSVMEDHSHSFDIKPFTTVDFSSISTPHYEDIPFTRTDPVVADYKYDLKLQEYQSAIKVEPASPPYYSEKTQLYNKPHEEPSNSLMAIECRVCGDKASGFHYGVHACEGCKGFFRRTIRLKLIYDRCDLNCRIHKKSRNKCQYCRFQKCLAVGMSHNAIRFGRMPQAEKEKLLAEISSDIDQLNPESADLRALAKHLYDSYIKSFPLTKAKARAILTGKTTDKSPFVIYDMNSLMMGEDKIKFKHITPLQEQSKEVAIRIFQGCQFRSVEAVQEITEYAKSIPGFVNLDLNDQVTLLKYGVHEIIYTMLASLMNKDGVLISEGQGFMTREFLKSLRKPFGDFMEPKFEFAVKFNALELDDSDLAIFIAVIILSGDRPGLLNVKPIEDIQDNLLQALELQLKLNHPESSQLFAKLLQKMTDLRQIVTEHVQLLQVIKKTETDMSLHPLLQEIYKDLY
Chain of Peroxisome proliferator-activated receptor gamma/Nuclear receptor corepressor 2 (Q9Y618 whole entry): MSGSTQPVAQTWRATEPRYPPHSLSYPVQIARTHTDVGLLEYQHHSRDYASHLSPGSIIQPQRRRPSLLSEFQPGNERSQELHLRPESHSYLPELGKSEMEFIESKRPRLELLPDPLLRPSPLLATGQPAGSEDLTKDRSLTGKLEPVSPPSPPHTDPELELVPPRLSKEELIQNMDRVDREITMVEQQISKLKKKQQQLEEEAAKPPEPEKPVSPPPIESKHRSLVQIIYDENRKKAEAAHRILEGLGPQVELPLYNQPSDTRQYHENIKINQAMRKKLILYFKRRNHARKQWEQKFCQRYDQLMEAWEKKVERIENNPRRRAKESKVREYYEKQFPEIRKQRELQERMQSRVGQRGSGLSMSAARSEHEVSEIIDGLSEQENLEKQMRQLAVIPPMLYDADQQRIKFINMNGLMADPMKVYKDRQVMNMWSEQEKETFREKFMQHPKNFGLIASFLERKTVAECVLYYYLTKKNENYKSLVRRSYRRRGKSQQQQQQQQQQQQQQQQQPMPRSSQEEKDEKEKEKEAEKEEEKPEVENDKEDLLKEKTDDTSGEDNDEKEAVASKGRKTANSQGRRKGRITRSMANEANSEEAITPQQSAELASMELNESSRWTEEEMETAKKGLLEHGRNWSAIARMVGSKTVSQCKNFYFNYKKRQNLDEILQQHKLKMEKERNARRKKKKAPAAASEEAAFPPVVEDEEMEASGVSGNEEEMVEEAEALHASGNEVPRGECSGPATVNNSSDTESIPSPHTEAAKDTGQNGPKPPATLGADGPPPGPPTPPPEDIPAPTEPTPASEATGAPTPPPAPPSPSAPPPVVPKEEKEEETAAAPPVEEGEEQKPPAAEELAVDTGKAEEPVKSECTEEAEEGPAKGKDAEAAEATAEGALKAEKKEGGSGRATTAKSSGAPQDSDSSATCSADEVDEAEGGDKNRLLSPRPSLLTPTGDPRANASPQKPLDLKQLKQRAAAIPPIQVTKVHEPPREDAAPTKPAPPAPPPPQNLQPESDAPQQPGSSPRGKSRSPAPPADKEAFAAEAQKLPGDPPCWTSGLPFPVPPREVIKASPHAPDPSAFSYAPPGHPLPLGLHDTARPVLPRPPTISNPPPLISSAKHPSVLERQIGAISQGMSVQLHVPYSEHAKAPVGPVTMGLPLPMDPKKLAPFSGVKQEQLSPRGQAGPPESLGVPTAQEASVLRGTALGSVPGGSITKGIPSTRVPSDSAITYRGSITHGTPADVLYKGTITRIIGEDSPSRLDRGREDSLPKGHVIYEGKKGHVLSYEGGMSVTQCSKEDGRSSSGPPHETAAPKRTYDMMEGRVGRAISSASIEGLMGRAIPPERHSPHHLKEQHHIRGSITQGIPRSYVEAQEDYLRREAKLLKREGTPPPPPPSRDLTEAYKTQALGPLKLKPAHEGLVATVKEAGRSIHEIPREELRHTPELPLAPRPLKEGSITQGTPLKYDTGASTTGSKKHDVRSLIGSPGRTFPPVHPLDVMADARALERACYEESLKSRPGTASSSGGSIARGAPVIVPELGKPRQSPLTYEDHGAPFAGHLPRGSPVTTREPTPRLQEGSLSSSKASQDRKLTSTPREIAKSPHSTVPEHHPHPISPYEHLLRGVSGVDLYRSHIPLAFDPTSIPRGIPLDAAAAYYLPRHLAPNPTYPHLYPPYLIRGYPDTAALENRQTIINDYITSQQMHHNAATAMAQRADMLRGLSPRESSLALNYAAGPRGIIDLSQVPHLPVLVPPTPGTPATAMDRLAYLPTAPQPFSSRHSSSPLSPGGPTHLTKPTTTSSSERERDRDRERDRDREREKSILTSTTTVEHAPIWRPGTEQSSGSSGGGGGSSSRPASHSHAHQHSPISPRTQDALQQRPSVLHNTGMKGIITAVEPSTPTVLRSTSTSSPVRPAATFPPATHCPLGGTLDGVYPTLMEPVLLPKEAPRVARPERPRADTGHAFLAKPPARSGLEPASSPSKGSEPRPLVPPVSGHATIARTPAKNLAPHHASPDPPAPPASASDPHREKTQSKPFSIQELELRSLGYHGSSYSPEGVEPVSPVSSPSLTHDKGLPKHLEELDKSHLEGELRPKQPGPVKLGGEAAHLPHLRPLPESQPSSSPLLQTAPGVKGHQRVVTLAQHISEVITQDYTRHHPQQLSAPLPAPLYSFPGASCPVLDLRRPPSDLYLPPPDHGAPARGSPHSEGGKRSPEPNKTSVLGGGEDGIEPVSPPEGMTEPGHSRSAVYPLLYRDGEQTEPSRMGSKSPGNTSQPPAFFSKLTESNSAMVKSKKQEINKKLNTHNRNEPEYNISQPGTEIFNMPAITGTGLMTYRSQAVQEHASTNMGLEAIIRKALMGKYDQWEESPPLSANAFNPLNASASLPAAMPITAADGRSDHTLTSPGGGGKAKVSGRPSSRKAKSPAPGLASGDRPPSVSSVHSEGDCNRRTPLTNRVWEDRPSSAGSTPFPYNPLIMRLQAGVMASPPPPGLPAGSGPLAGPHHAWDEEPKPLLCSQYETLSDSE
Chain of Cytochrome P450 2C9 (P11712 whole entry): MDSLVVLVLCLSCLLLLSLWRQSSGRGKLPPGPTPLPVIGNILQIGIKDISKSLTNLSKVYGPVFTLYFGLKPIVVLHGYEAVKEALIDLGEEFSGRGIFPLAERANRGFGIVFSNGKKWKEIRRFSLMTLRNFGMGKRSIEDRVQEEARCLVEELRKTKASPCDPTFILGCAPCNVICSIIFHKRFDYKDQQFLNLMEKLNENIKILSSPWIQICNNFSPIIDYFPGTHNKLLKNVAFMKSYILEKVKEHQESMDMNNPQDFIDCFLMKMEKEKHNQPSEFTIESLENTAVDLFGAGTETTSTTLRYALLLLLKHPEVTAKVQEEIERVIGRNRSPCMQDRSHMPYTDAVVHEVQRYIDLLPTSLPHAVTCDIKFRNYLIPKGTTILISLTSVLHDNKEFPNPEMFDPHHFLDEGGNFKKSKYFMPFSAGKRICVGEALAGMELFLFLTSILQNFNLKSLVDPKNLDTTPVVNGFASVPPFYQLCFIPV

IC50 [1]: 33 µM (not active)
IC50 [2]: 3.26 µM (active)
Structure (SMILES): Cc1cc(-c2ccc(Cl)cc2)c(C#N)c(N)n1

Structure (SMILES): COc1cccc(C(=O)n2c3ccccc3c3ccccc32)c1
EC50 (Streptococcus): > 500 µM (not active)

AC50 (Cytochrome P450 2D6 [3]): 25.1 µM (inconclusive)
Structure (SMILES): O=c1cc(-c2ccccc2O)oc2cc(O)cc(O)c12

EC50 [4]: > 100 µM (not active)
AC50 (Cytochrome P450 2C9): inconclusive
AC50 (Cytochrome P450 2D6 [5]): 14.1 µM (inconclusive)
Structure (SMILES): CCN=C(S)NNC(=O)CCn1c2ccccc2c2ccccc21
